Test results from PubChem BioAssay (NCI).
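Assay format: 96-well plates, 48-hour exposure. TGI: concentration producing complete growth inhibition.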

Columns and labels:
Experiment in all cases: NCI-60 cell line screen, 48 h
SW-620 colon = test system: SW-620 colon
SK-MEL-2 melanoma = test system: SK-MEL-2 melanoma
UO-31 renal = test system: UO-31 renal
MCF7 breast = test system: MCF7 breast
TK-10 renal = test system: TK-10 renal
SF-539 CNS = test system: SF-539 CNS
SF-295 CNS = test system: SF-295 CNS
U251 CNS = test system: U251 CNS
CCRF-CEM leukemia = test system: CCRF-CEM leukemia
MDA-N = test system: MDA-N
IGROV1 ovarian = test system: IGROV1 ovarian
HT29 colon = test system: HT29 colon
KM12 colon = test system: KM12 colon
HS 578T breast = test system: HS 578T breast
MDA-MB-231 breast = test system: MDA-MB-231 breast
DU-145 prostate = test system: DU-145 prostate
MDA-MB-435 = test system: MDA-MB-435
LOX IMVI melanoma = test system: LOX IMVI melanoma
OVCAR-8 ovarian = test system: OVCAR-8 ovarian
SNB-19 CNS = test system: SNB-19 CNS
BT-549 breast = test system: BT-549 breast
786-0 renal = test system: 786-0 renal
OVCAR-5 ovarian = test system: OVCAR-5 ovarian
NCI/ADR-RES ovarian = test system: NCI/ADR-RES ovarian
MALME-3M melanoma = test system: MALME-3M melanoma
A549 NSCLC = test system: A549 NSCLC
ACHN renal = test system: ACHN renal
SK-MEL-28 melanoma = test system: SK-MEL-28 melanoma
NCI-H522 lung = test system: NCI-H522 lung
M14 melanoma = test system: M14 melanoma
UACC-257 melanoma = test system: UACC-257 melanoma
UACC-62 melanoma = test system: UACC-62 melanoma
HOP-92 NSCLC = test system: HOP-92 NSCLC
NCI-H460 lung = test system: NCI-H460 lung
HOP-62 NSCLC = test system: HOP-62 NSCLC
SF-268 CNS = test system: SF-268 CNS
A498 renal = test system: A498 renal
SK-OV-3 ovarian = test system: SK-OV-3 ovarian
SK-MEL-5 melanoma = test system: SK-MEL-5 melanoma
T-47D breast = test system: T-47D breast
SN12C renal = test system: SN12C renal
SNB-75 CNS = test system: SNB-75 CNS
COLO 205 colon = test system: COLO 205 colon
OVCAR-4 ovarian = test system: OVCAR-4 ovarian
CAKI-1 renal = test system: CAKI-1 renal
OVCAR-3 ovarian = test system: OVCAR-3 ovarian
HCT-15 colon = test system: HCT-15 colon
RXF 393 renal = test system: RXF 393 renal
EKVX NSCLC = test system: EKVX NSCLC
PC-3 prostate = test system: PC-3 prostate
NCI-H226 lung = test system: NCI-H226 lung
HCT-116 colon = test system: HCT-116 colon
NCI-H23 lung = test system: NCI-H23 lung
RPMI-8226 leukemia = test system: RPMI-8226 leukemia
MOLT-4 leukemia = test system: MOLT-4 leukemia
HCC-2998 colon = test system: HCC-2998 colon

## CC(=O)SSC1(Cl)C(C)(C)C(Cl)(SSC(C)=O)C1(C)C (centres undefined)
SW-620 colon
  TGI: > 100 µM
SK-MEL-2 melanoma
  TGI: > 100 µM
UO-31 renal
  TGI: > 100 µM
MCF7 breast
  TGI: > 100 µM
TK-10 renal
  TGI: > 100 µM
SF-539 CNS
  TGI: 61.5 µM
SF-295 CNS
  TGI: > 100 µM
U251 CNS
  TGI: > 100 µM
CCRF-CEM leukemia
  TGI: 60.2 µM
MDA-N
  TGI: > 100 µM
IGROV1 ovarian
  TGI: > 100 µM
HT29 colon
  TGI: > 100 µM
KM12 colon
  TGI: > 100 µM
HS 578T breast
  TGI: > 100 µM
MDA-MB-231 breast
  TGI: > 100 µM
DU-145 prostate
  TGI: > 100 µM
MDA-MB-435
  TGI: > 100 µM
LOX IMVI melanoma
  TGI: > 100 µM
OVCAR-8 ovarian
  TGI: > 100 µM
SNB-19 CNS
  TGI: > 100 µM
BT-549 breast
  TGI: > 100 µM
786-0 renal
  TGI: > 100 µM
OVCAR-5 ovarian
  TGI: > 100 µM
NCI/ADR-RES ovarian
  TGI: > 100 µM
MALME-3M melanoma
  TGI: > 100 µM
A549 NSCLC
  TGI: > 100 µM
ACHN renal
  TGI: > 100 µM
SK-MEL-28 melanoma
  TGI: > 100 µM
NCI-H522 lung
  TGI: > 100 µM
M14 melanoma
  TGI: > 100 µM
UACC-257 melanoma
  TGI: > 100 µM
UACC-62 melanoma
  TGI: > 100 µM
HOP-92 NSCLC
  TGI: > 100 µM
NCI-H460 lung
  TGI: 82.9 µM
HOP-62 NSCLC
  TGI: > 100 µM
SF-268 CNS
  TGI: > 100 µM
A498 renal
  TGI: > 100 µM
SK-OV-3 ovarian
  TGI: > 100 µM
SK-MEL-5 melanoma
  TGI: > 100 µM
T-47D breast
  TGI: 51.7 µM
SN12C renal
  TGI: > 100 µM
SNB-75 CNS
  TGI: 82.5 µM
COLO 205 colon
  TGI: > 100 µM
OVCAR-4 ovarian
  TGI: > 100 µM
CAKI-1 renal
  TGI: > 100 µM
OVCAR-3 ovarian
  TGI: > 100 µM
HCT-15 colon
  TGI: > 100 µM
RXF 393 renal
  TGI: 48.5 µM
EKVX NSCLC
  TGI: > 100 µM
PC-3 prostate
  TGI: > 100 µM
NCI-H226 lung
  TGI: > 100 µM
HCT-116 colon
  TGI: > 100 µM
NCI-H23 lung
  TGI: > 100 µM

## CCOC(=O)c1cc(NC(=O)N(CCC#N)CCN(C(=O)N[C@@H](Cc2ccccc2)C(=O)N[C@@H](CC(C)C)C(=O)NC)c2ccccc2)ccc1OC
SK-MEL-2 melanoma
  TGI: > 100 µM
UO-31 renal
  TGI: > 100 µM
MCF7 breast
  TGI: > 100 µM
TK-10 renal
  TGI: > 100 µM
SF-539 CNS
  TGI: 98.5 µM
SF-295 CNS
  TGI: > 100 µM
CCRF-CEM leukemia
  TGI: > 100 µM
MDA-N
  TGI: > 100 µM
RPMI-8226 leukemia
  TGI: 57.9 µM
IGROV1 ovarian
  TGI: > 100 µM
KM12 colon
  TGI: > 100 µM
HS 578T breast
  TGI: > 100 µM
MDA-MB-231 breast
  TGI: > 100 µM
DU-145 prostate
  TGI: > 100 µM
MDA-MB-435
  TGI: > 100 µM
LOX IMVI melanoma
  TGI: 41.5 µM
OVCAR-8 ovarian
  TGI: > 100 µM
SNB-19 CNS
  TGI: > 100 µM
BT-549 breast
  TGI: 82.9 µM
786-0 renal
  TGI: > 100 µM
OVCAR-5 ovarian
  TGI: > 100 µM
NCI/ADR-RES ovarian
  TGI: > 100 µM
MALME-3M melanoma
  TGI: 73.5 µM
A549 NSCLC
  TGI: > 100 µM
ACHN renal
  TGI: > 100 µM
SK-MEL-28 melanoma
  TGI: > 100 µM
M14 melanoma
  TGI: > 100 µM
UACC-257 melanoma
  TGI: 55 µM
UACC-62 melanoma
  TGI: 24.9 µM
HOP-92 NSCLC
  TGI: 71 µM
HOP-62 NSCLC
  TGI: > 100 µM
SF-268 CNS
  TGI: > 100 µM
A498 renal
  TGI: > 100 µM
SK-OV-3 ovarian
  TGI: > 100 µM
MOLT-4 leukemia
  TGI: 82.1 µM
SK-MEL-5 melanoma
  TGI: > 100 µM
T-47D breast
  TGI: > 100 µM
SN12C renal
  TGI: > 100 µM
SNB-75 CNS
  TGI: > 100 µM
COLO 205 colon
  TGI: > 100 µM
OVCAR-4 ovarian
  TGI: > 100 µM
CAKI-1 renal
  TGI: > 100 µM
OVCAR-3 ovarian
  TGI: > 100 µM
HCT-15 colon
  TGI: > 100 µM
RXF 393 renal
  TGI: 75.2 µM
EKVX NSCLC
  TGI: > 100 µM
PC-3 prostate
  TGI: > 100 µM
NCI-H226 lung
  TGI: > 100 µM
HCC-2998 colon
  TGI: > 100 µM
HCT-116 colon
  TGI: > 100 µM
NCI-H23 lung
  TGI: > 100 µM
